Laboratory results: patent US12605358B2, “Composition for preventing or treating nervous system diseases comprising compound that inhibits mTOR signaling pathway as active ingredient” (ALIAD BIOPHARMA, priority 2021, dated 2026)

Legend:
primary cultured neurons = assay: LC3-II turnover analysis (LC3 immunoblot); type: cell-based, rat; conditions: FIG. 3B
[1] = tested on: primary cultured cerebral neurons; assay: Aβ accumulation (6E10) and LC3 double staining; type: cell-based, rat; conditions: Aβ 0.5 or 1 μM, HN-1703 0.1 or 0.5 μM, 12 or 24 hours, FIG. 4
Procedure: Primary neurons culture was performed from the cerebral cortex of E16 embryos on embryonic day 16 of […] (SD, Orient Bio). Primary neurons culture (cortical neurons culture) was performed from the cerebral cortex of rat (SD, Orient Bio) embryonic 16-day (E16) embryos. The left and right hemispheres of the extracted brain were separated using sterile tweezers under a dissecting microscope, the meninges were peeled off, and then the cerebral cortex region was cut with No. 5 tweezers and collected in a Ca^2+/Mg^2+-free HBSS (Invitrogen), and mixed with an equal amount of 0.25% trypsin in a 15 ml tube and treated in a 37° C. water bath for 10 to 15 minutes. Thereafter, trypsin was inactivated by removing a portion of trypsin, leaving 1 to 2 ml of trypsin, and then adding the same amount of 20% FBS-DMEM. […]
As confirmed in Experimental Example 2 that HN-1703 may effectively promote autophagy, it was evaluated whether HN-1703 may remove Aβ oligomers accumulated in cells. In the rat embryonic (E16) cerebral cortex region, primary cultured cerebral neurons were treated with […] or 1 μM Aβ and 0.1 μM or 0.5 μM HN-1703 for 12 or 24 hours, and accumulated Aβ was stained with a 6E10 antibody and autophagy formation was simultaneously double-stained with an LC3 antibody and measured, and cell nuclei were labeled with DAPI. […]

5xFAD transgenic mice = assay: Neuroinflammation, Iba-1 staining of brain slices; type: in vivo; conditions: hippocampal dentate gyrus; compared to a 5xFAD-DMSO control group; FIG. 11
Procedure: 5xFAD animals were administered with HN-1703 at three doses for 14 days to male heterozygotes aged 6 months (all born within 3 days). The behaviors of mice were measured in a dark cycle in which the mice were active while alternating light and dark in a 12-hour cycle in a breeding room chamber, and the mice were freely accessible to food and water and bred in compliance with experimental animal ethical guidelines of Kyung Hee University. In each group, the HN-1703 was intraperitoneally injected at the same time once a day in a volume of 100 μl to 12 mice in a normal group (wild type littermate), 9 5xFAD mice in a vehicle (DMSO administration), 8 5xFAD mice in a 5 mg/kg administered group, 9 5xFAD mice in a 10 mg/kg administered group, and 9 5xFAD mice in a 20 mg/kg administered group. […] In a behavioral measurement room, humidity (40 to 60%) and temperature (22 to 26° C.) were maintained, and reflected light was maintained to avoid sound and light effects. Behavioral measures were measured in Y-maze, Morris Water Maze, and Passive Avoidance test for 18 days in sequence.
A brain slice immunostaining method was modified and used as described in Heo H et al. (J Ethnopharmacol, 2009). Mice were transcardially perfused with 4% PFA. […]

With COc1cc(OC)c2c(=O)c3cc4c(cc3oc2c1)OCO4 [HN-1703, 7,9-dimethoxy-10H-[1,3]dioxolo[4,5-b]xanthen-10-one] the “LC3-II formation compared to the control group” value (primary cultured neurons; in the presence of bafilomycin A1, a lysosome mature inhibitor) was “significantly increased LC3-II formation”, the “LC3-II (autophagy activation marker) compared to the control group” value (primary cultured neurons; up to 36 hours after treating the compound) was “significantly increased LC3-II” and the “Aβ accumulated in cells removed” value [1] was no less than 50%. The “increase of the area of LC3 puncta” value ([1]; concentration-dependent) was no less than 4 times and the “Iba-1 staining (activated microglia)” value (5xFAD transgenic mice) was “significantly reduced”.
